Assay results taken from PubChem BioAssay AID1963869 (Molecular Pharmacology Branch, DTP, NCI, 2024).
Where “and” joins values, the source holds several entries; their conditions need not be identical. Equal entries are not always repeated.

Test system: KRAS patient-derived spheroids with HUVEC/MSC, viability
Test: Anticancer human tumor 323965-272-R-J2-PDC patient-derived pancreatic carcinoma cell line growth inhibition [KRAS2]
Settings: for viability, T/C: stronger effect = lower value
Source text: Multicellular complex tumor spheroid response to RAS pathway inhibitors in combination with a targeted agents in patient-derived cell lines with oncogenic KRAS variants from multiple cancer types
A high-throughput screen of multi-cell type tumor spheroids was designed to identify active combinations of targeted small molecules and KRAS pathway inhibitors. Complex spheroids include a stromal component modeled by human endothelial cells (HUVEC) and fibroblasts modeled by human mesenchymal stem cells (MSCs). The concentration ranges selected for each drug and investigational agent were based upon clinically achievable concentrations if the clinical Cmax of the agent was known.
Compounds. The drugs and investigational agents: BI-3406 (NSC825286), BAY-293 (NSC824723), batoprotafib (TNO155; NSC825523), sotorasib (AMG 510; NSC818433), MRTX1257 (NSC819558), elimusertib (BAY 1895344; NSC800525), molibresib (GSK525762; NSC774829), temuterkib (LY3214996; NSC803410), venetoclax (NSC766270), alisertib (NSC759677), olaparib (NSC753686), talazoparib (NSC767125), erdafitinib (NSC781556), ipatasertib (NSC767898), cabozantinib (NSC761068), nintedanib (NSC756659), abemaciclib (NSC768073), docetaxel (NSC628503), trametinib (NSC758246), and sapanisertib (NSC764658) were obtained from the National Cancer Institute (NCI) Developmental Therapeutics Program Chemical Repository. The FDA-approved anticancer drug set is available from the Developmental Therapeutics Program. […] The stock solutions were prepared in dimethyl sulfoxide (DMSO, Sigma-Aldrich, St. Louis, MO, cat. D2650) at 800-fold the tested concentration and stored at -70 degrees C prior to their use. All drugs and investigational agents were tested over a range starting from a high concentration at or near the clinical Cmax and decreasing in half-log increments. If the clinical Cmax for an agent had not been determined, the highest concentration tested was 10 microM.
Cell Culture. All cells were maintained in an incubator at 37 degrees C and 5% CO2 with 95% humidity. The PDC lines were cultured according to standard operating procedures established by the NCI PDMR (https://pdmr.cancer.gov/sops/default.htm). Briefly, all PDCs were thawed and cultured in Matrigel-coated flasks prepared with a working solution of 1X Ham's F-12 nutrient mix, without supplementation (Invitrogen, Waltham, MA, cat. 11765054), 100 U/mL penicillin-streptomycin (Invitrogen, cat. 15140122), and 2.5% Matrigel (Corning Inc., Corning, NY, cat. 354248) for the first three passages. All PDCs were cultured in complete DMEM/F-12 media containing advanced DMEM/F-12 (Invitrogen, cat. 12634028), 4.9% defined fetal bovine serum, heat inactivated (HyClone Laboratories Inc., Logan, UT, cat. SH30070.03HI), 389 ng/mL hydrocortisone (Sigma-Aldrich, cat. H4001), 9.7 ng/mL human EGF recombinant protein (Invitrogen, cat. PHG0313), 23.4 microg/mL adenine (Sigma-Aldrich, cat. A2786), 97.3 U/mL penicillin-streptomycin (Invitrogen, cat. 15140122), 1.9 mM L-glutamine (Invitrogen, cat. 25030081), and 9.7 microM Y-27632 dihydrochloride (Tocris Bioscience, Bristol, United Kingdom, cat. 1254). The PDCs were cultured in complete DMEM/F12 media without 9.7 microM Y-27632 dihydrochloride for at least two passages prior to the screen. The established cell line HOP-62 was cultured in RPMI 1640 medium, HEPES (Invitrogen, cat. 22400105) with 10% defined fetal bovine serum (HyClone Laboratories Inc., cat. SH30070.03) and 2 mM L-glutamine (Invitrogen, cat. 25030081). The pooled donor HUVEC were cultured in endothelial cell growth medium 2 (PromoCell, Heidelberg, Germany, cat. C-22011) and the hMSC were cultured in mesenchymal stem cell growth medium 2 (PromoCell, cat. C-28009). For all experiments, HUVEC and hMSC were used at passages </=5, while the malignant cell lines were used at passages </=15. […]

[1] = curve of first compound, second compound 0.1 µM
[2] = curve of first compound, second compound 0.316 µM
[3] = curve of first compound, second compound 1 µM
[4] = curve of first compound, second compound 3.16 µM
[5] = curve of first compound, second compound 10 µM
[6] = second compound 0.1 µM, first compound 0.0316 µM
[7] = second compound 0.1 µM, first compound 0.1 µM
[8] = second compound 0.1 µM, first compound 0.316 µM
[9] = second compound 0.1 µM, first compound 1 µM
[10] = second compound 0.1 µM, first compound 3.16 µM
[11] = second compound 0.1 µM, first compound 10 µM
[12] = second compound 0.316 µM, first compound 0.0316 µM
[13] = second compound 0.316 µM, first compound 0.1 µM
[14] = second compound 0.316 µM, first compound 0.316 µM
[15] = second compound 0.316 µM, first compound 1 µM
[16] = second compound 0.316 µM, first compound 3.16 µM
[17] = second compound 0.316 µM, first compound 10 µM
[18] = second compound 1 µM, first compound 0.0316 µM
[19] = second compound 1 µM, first compound 0.1 µM
[20] = second compound 1 µM, first compound 0.316 µM
[21] = second compound 1 µM, first compound 1 µM
[22] = second compound 1 µM, first compound 3.16 µM
[23] = second compound 1 µM, first compound 10 µM
[24] = second compound 3.16 µM, first compound 0.0316 µM
[25] = second compound 3.16 µM, first compound 0.1 µM
[26] = second compound 3.16 µM, first compound 0.316 µM
[27] = second compound 3.16 µM, first compound 1 µM
[28] = second compound 3.16 µM, first compound 3.16 µM
[29] = second compound 3.16 µM, first compound 10 µM
[30] = second compound 10 µM, first compound 0.0316 µM
[31] = second compound 10 µM, first compound 0.1 µM
[32] = second compound 10 µM, first compound 0.316 µM
[33] = second compound 10 µM, first compound 1 µM
[34] = second compound 10 µM, first compound 3.16 µM
[35] = second compound 10 µM, first compound 10 µM
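Note: spheroids exposed to agents for 7 days.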
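Throughout, for viability, T/C: 100% = DMSO vehicle control viability.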

`CCNC(=O)CC1N=C(c2ccc(Cl)cc2)c2cc(OC)ccc2-n2c(C)nnc21` (configuration not stated) + CNCc1ccccc1-c1csc(C(C)Nc2nc(C)nc3cc(OC)c(OC)cc23)c1 gave an IC50 [1] of 370 nM, an IC50 [2] of 332 nM and an IC50 [3] of 466 nM. For the same compound, the IC50 [4] was 436 nM, the IC50 [5] was < 31.6 nM and the viability, T/C [6] was 94.1%. It also gave a viability, T/C [7] of 75.7%, a viability, T/C [8] of 51.9% and a viability, T/C [9] of 38.5%. For the same compound, the viability, T/C [10] was 33.7%, the viability, T/C [11] was 33.5% and the viability, T/C [12] was 87.2%. The viability, T/C [13] was 77.7%, the viability, T/C [14] was 50.3% and the viability, T/C [15] was 36.4%. For the same compound, the viability, T/C [16] was 34.5%, the viability, T/C [17] was 31.6% and the viability, T/C [18] was 94.8%. For the same compound, the viability, T/C [19] was 80.2%, the viability, T/C [20] was 54.8% and the viability, T/C [21] was 40.1%. It also gave a viability, T/C [22] of 34.2%, a viability, T/C [23] of 32.4% and a viability, T/C [24] of 98.9%. For the same compound, the viability, T/C [25] was 80.7%, the viability, T/C [26] was 55.4% and the viability, T/C [27] was 36.3%. The viability, T/C [28] was 26.2%, the viability, T/C [29] was 24.1% and the viability, T/C [30] was 0.5%. The viability, T/C [31] was 0.19%, the viability, T/C [32] was 0.17% and the viability, T/C [33] was 0.15%. It also gave a viability, T/C [34] of 0.21% and a viability, T/C [35] of 0.3%.

Compound `CC(C)NCC(C(=O)N1CCN(c2ncnc3c2C(C)CC3O)CC1)c1ccc(Cl)cc1` (configuration not stated) + CNCc1ccccc1-c1csc(C(C)Nc2nc(C)nc3cc(OC)c(OC)cc23)c1 has an IC50 [1] of 1570 nM, an IC50 [2] of 1060 nM and an IC50 [3] of 1330 nM. For the same compound, the IC50 [4] was 532 nM, the IC50 [5] was < 31.6 nM and the viability, T/C [6] was 90.9%. It also gave a viability, T/C [7] of 85.4%, a viability, T/C [8] of 70.6% and a viability, T/C [9] of 55.8%. For the same compound, the viability, T/C [10] was 41.7%, the viability, T/C [11] was 36% and the viability, T/C [12] was 94.2%. For the same compound, the viability, T/C [13] was 85.2%, the viability, T/C [14] was 72.9% and the viability, T/C [15] was 48.1%. The viability, T/C [16] was 41.4%, the viability, T/C [17] was 33% and the viability, T/C [18] was 94.9%. For the same compound, the viability, T/C [19] was 91.8%, the viability, T/C [20] was 79.9% and the viability, T/C [21] was 54.4%. For the same compound, the viability, T/C [22] was 36.7%, the viability, T/C [23] was 32.9% and the viability, T/C [24] was 88.3%. For the same compound, the viability, T/C [25] was 73.2%, the viability, T/C [26] was 58.5% and the viability, T/C [27] was 43%. It also gave a viability, T/C [28] of 21.5%, a viability, T/C [29] of 18% and a viability, T/C [30] of 0.27%. The viability, T/C [31] was 0.28%, the viability, T/C [32] was 0.23% and the viability, T/C [33] was 0.59%. For the same compound, the viability, T/C [34] was 0.71% and the viability, T/C [35] was 0.19%.

`CC(C)NCC(C(=O)N1CCN(c2ncnc3c2C(C)CC3O)CC1)c1ccc(Cl)cc1` (configuration not stated) + C=CC(=O)N1CCN(c2nc(=O)n(-c3c(C)ccnc3C(C)C)c3nc(-c4c(O)cccc4F)c(F)cc23)C(C)C1 showed an IC50 [1] of 175 nM, an IC50 [2] of 80.4 nM and an IC50 [3] of 159 nM. For the same compound, the IC50 [4] was 53.5 nM, the IC50 [5] was < 31.6 nM and the viability, T/C [6] was 62.4%. For the same compound, the viability, T/C [7] was 56.3%, the viability, T/C [8] was 43.5% and the viability, T/C [9] was 32.4%. For the same compound, the viability, T/C [10] was 27.1%, the viability, T/C [11] was 23.8% and the viability, T/C [12] was 56.8%. The viability, T/C [13] was 49.2%, the viability, T/C [14] was 40.2% and the viability, T/C [15] was 33%. For the same compound, the viability, T/C [16] was 26%, the viability, T/C [17] was 22.6% and the viability, T/C [18] was 61.2%. For the same compound, the viability, T/C [19] was 55%, the viability, T/C [20] was 42.3% and the viability, T/C [21] was 29.8%. It also gave a viability, T/C [22] of 26.4%, a viability, T/C [23] of 27.7% and a viability, T/C [24] of 52.1%. It also gave a viability, T/C [25] of 47.3%, a viability, T/C [26] of 37.8% and a viability, T/C [27] of 28.3%. It also gave a viability, T/C [28] of 26.9%, a viability, T/C [29] of 27.4% and a viability, T/C [30] of 42.8%. For the same compound, the viability, T/C [31] was 49.7%, the viability, T/C [32] was 30.5% and the viability, T/C [33] was 21.5%. The viability, T/C [34] was 22.9% and the viability, T/C [35] was 18%.

With `COc1cc(Nc2ncc3c(n2)-c2ccc(Cl)cc2C(c2c(F)cccc2OC)=NC3)ccc1C(=O)O` the viability, T/C (compound 0.0316 µM) was 91.7% [middle of 5 runs], the viability, T/C (compound 0.1 µM) was 72.2% [middle of 5 runs] and the viability, T/C (compound 0.316 µM) was 45.2% [middle of 5 runs]. For the same compound, the viability, T/C (compound 1 µM) was 51.5% [middle of 5 runs], the viability, T/C (compound 3.16 µM) was 65.7% [middle of 5 runs] and the viability, T/C (compound 10 µM) was 69% [middle of 5 runs]. For the same compound, the IC50 (curve of compound) was 10000 nM and > 10000 nM.
